According to patent US12544370B2, “Methods for cancer therapy” (ASCENTAGE PHARMA (SUZHOU) CO., LTD., priority 2018, dated 2026):

Tests used:
[1] = test system: murine Ba/F3 cells expressing BCR-ABL^T315I; experiment: Subcutaneous tumors, isogenic Ba/F3 BCR-ABL T315I model; type: in vivo
[2] = target: Ba/F3 containing BCR-ABL mutation T315I/F317L (Homo sapiens, UniProt P00519, T315I/F317L, cells depend on it); conditions: read-out: Antiproliferation Effect (IC50)
Description: (§1) Ba/F3 cells stably expressing BCR-ABL (F359V, H396R, E255K, Y253H, T315I, F317L) mutations were provided by the Institute of Life and Health, Guangzhou Academy of Sciences.
(§2) 1. The mutated Ba/F3 cell line stably expressing BCR-ABL (E255V, T315M, Y253H/E255V, Y253H/T315I, Y253H/F359V, T315I/F317L, F317L/F359V) mutation was constructed by electro-transformation method, the Ba/F3 cell line stably expressing the BCR-ABL (E255V/T315I, T315I/F359V) mutation was constructed by lentivirus infection method.
(§3) 2. Effect of drugs on the proliferation of BaF3 cells stably transfected with BCR-ABL single mutation or complex mutation by WST assay
(§4) The dilution was used as a cell blank control (excluding the sample to be tested, which was added to the cells). In addition, a negative control (excluding the sample to be tested and cells) was prepared. In addition to the negative control wells, 100 μl of complete medium cell suspension was added to each well. The dilution was added to the negative control wells at 100 μl/well. 3 repeated wells were set in the experiment. […] 20 μl of CCK-8 detection solution (Shanghai Life iLab Biotech Co., LTD, Cat #D3100L4057) was added to each well, incubating at 37° C. for 2 hours in a CO2 incubator. The OD value was measured at A450 nm by a microplate reader.
(§5) The percentage of cell viability was calculated using the following formula: (O.D. test well-O.D. negative control well)/(O.D. cell control well-O.D. negative control well)×100
(§6) The IC50 was calculated using a non-linear regression data analysis method of Graphpad Prism 6.0 software ([…]).

[3] = target: Ba/F3 containing BCR-ABL mutation Y253H/T315I (Homo sapiens, UniProt P00519, Y253H/T315I, cells depend on it); conditions: read-out: Antiproliferation Effect (IC50)
Description: as §1, §2, §3, §4, §5, §6

[4] = target: Ba/F3 containing BCR-ABL mutation F359V (Homo sapiens, UniProt P00519, F359V, cells depend on it); conditions: read-out: Antiproliferation Effect (IC50)
Description: as §1, §2, §3, §4, §5, §6

[5] = target: Ba/F3 containing BCR-ABL mutation T315M (Homo sapiens, UniProt P00519, T315M, cells depend on it); conditions: read-out: Antiproliferation Effect (IC50)
Description: as §1, §2, §3, §4, §5, §6

[6] = target: Ba/F3 containing BCR-ABL mutation Y253H (Homo sapiens, UniProt P00519, Y253H, cells depend on it); conditions: read-out: Antiproliferation Effect (IC50)
Description: as §1, §2, §3, §4, §5, §6

[7] = target: Ba/F3 containing BCR-ABL mutation Y253H/E255V (Homo sapiens, UniProt P00519, Y253H/E255V, cells depend on it); conditions: read-out: Antiproliferation Effect (IC50)
Description: as §1, §2, §3, §4, §5, §6

[8] = target: Ba/F3 containing BCR-ABL mutation T315I/F359V (Homo sapiens, UniProt P00519, T315I/F359V, cells depend on it); conditions: read-out: Antiproliferation Effect (IC50)
Description: as §1, §2, §3, §4, §5, §6

[9] = target: Ba/F3 containing BCR-ABL mutation F317L (Homo sapiens, UniProt P00519, F317L, cells depend on it); conditions: read-out: Antiproliferation Effect (IC50)
Description: as §1, §2, §3, §4, §5, §6

[10] = target: Ba/F3 containing BCR-ABL mutation E255K (Homo sapiens, UniProt P00519, E255K, cells depend on it); conditions: read-out: Antiproliferation Effect (IC50)
Description: as §1, §2, §3, §4, §5, §6

[11] = target: Ba/F3 containing BCR-ABL mutation Y253H/F359V (Homo sapiens, UniProt P00519, Y253H/F359V, cells depend on it); conditions: read-out: Antiproliferation Effect (IC50)
Description: as §1, §2, §3, §4, §5, §6

[12] = target: Ba/F3 containing BCR-ABL mutation T315I (Homo sapiens, UniProt P00519, T315I, cells depend on it); conditions: read-out: Antiproliferation Effect (IC50)
Description: as §1, §2, §3, §4, §5, §6

[13] = target: Ba/F3 containing BCR-ABL mutation E255V/T315I (Homo sapiens, UniProt P00519, E255V/T315I, cells depend on it); conditions: read-out: Antiproliferation Effect (IC50)
Description: as §1, §2, §3, §4, §5, §6

[14] = target: Ba/F3 containing BCR-ABL mutation E255V (Homo sapiens, UniProt P00519, E255V, cells depend on it); conditions: read-out: Antiproliferation Effect (IC50)
Description: as §1, §2, §3, §4, §5, §6

[15] = target: Ba/F3 containing BCR-ABL mutation H396R (Homo sapiens, UniProt P00519, H396R, cells depend on it); conditions: read-out: Antiproliferation Effect (IC50)
Description: as §1, §2, §3, §4, §5, §6

SMILES: Cc1ccc(C(=O)Nc2ccc(CN3CCN(C)CC3)c(C(F)(F)F)c2)cc1C#Cc1cnc2[nH]ncc2c1 [compound of formula (I-A), 3-(2-(1H-pyrazolo[3,4-b]pyridin-5-yl)ethynyl)-4-methyl-N-(4-((4-methylpiperazin-1-yl)methyl)-3-(trifluoromethyl)phenyl)-benzamide]
- effect on subcutaneous tumors [1]: complete regression
- GI50 [2]: 114 ± 9 nM
- GI50 [3]: 111 ± 1 nM
- GI50 [4]: 281 ± 187 nM
- GI50 [5]: 217 ± 131 nM
- GI50 [6]: 7 ± 1 nM
- GI50 [7]: 122 nM
- GI50 [8]: 7 ± 1 nM
- GI50 [9]: 8 ± 3 nM
- GI50 [10]: 22 ± 13 nM
- GI50 [11]: 100 ± 81 nM
- GI50 [12]: 24 ± 10 nM
- GI50 [13]: 26 ± 11 nM
- GI50 [14]: 13.5 ± 1 nM
- GI50 [15]: 274 ± 82 nM
